Experimental data: patent US7935726B1, “Tricyclic pyrones” (Kansas State University Research Foundation, priority 1999, dated 2011)

How the values were obtained:
MC65 cells = experiment: protection from APP C99-induced cell death in MC65 cells; assay type: cell-based
Description: The reported procedures for the inhibitory activities of ACAT (Tomoda, H.; Nishida, H.; Masuma, R.; Cao, J.; Okuda, S.; Omura, S. J. Antibiot. 1991, 44, 136-143), CETP (Tomoda, H.; Tabata, N.; Masuma, R.; Si, S.-Y.; Omura, S. J. Antibiot. 1998, 51, 618-623; D. H. Hua et al. Tetrahedron 2003, 59, 4795-4803), L1210 tumor cells (Perchellet, E. M.; Ladesich, J. B.; Magill, M. J.; Chen, Y.; Hua, D. H.; Perchellet, J. P. Anti-Cancer Drugs 1999, 10, 489-504), and APP C99-induced cell death (Jin, L.-W.; Hua, D. H.; Shie, F.-S.; Maezawa, I.; Sopher, B.; Martin, G. M. J. Mol. Neurosci. 2002, 19, 57-61) were followed. […]

ACAT = experiment: inhibition of ACAT; assay type: biochemical
caspase 103 = experiment: in vitro caspase substrate study (release of p-nitroaniline); assay type: biochemical
Description: (§1) ACAT mediates the esterification of intracellular cholesterol and is believed to play a key role in lipoprotein metabolism and atherogenesis (for a review: Suckling, K. E.; Stange, E. F. J. Lipid Res. 1985, 26, 647-671). […] The inhibition of CETP with these three compounds was then studied. CETP, a hydrophobic neutral glycoprotein, mediates the transfer of cholesteryl ester from high-density lipoprotein to low-density lipoprotein (For a review: Tall, A. R. J. Lipid Res. 1993, 34, 1255-1274). […] The N-(p-nitrophenyl)aspartamide portion of 104 was attached in order to study whether 104 was a substrate of […] (For a review: VIIIa, P.; Kaufmann, S. H.; Earnshaw, W. C. Trends Biochem. Sci. 1997, 22, 388-393). […] Compound 105 is cytotoxic to L1210 tumor cells, with IC50=30 μM. Aggarwal et al., J. Chem. Soc., Perkin Trans I (1999) 3315-3321 is incorporated by reference to the extent not inconsistent with the disclosure herewith.

CETP = target: T1, CETP (Homo sapiens, UniProt P11597); experiment: inhibition of CETP; assay type: biochemical
T1 sequence (P11597 18-493): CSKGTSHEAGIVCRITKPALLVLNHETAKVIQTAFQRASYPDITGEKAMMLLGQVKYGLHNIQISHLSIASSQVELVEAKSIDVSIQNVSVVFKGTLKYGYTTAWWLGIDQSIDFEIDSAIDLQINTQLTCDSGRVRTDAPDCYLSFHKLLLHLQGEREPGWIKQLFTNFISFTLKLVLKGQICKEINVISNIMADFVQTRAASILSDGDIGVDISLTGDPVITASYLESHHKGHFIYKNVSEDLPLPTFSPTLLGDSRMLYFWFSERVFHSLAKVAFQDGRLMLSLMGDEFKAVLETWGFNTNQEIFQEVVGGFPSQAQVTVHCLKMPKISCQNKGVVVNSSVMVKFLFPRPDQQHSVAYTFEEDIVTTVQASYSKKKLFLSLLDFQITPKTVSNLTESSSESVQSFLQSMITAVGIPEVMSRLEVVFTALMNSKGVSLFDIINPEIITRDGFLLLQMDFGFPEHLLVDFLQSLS
Description: The reported procedures for the inhibitory activities of ACAT (Tomoda, H.; Nishida, H.; Masuma, R.; Cao, J.; Okuda, S.; Omura, S. J. Antibiot. 1991, 44, 136-143), CETP (Tomoda, H.; Tabata, N.; Masuma, R.; Si, S.-Y.; Omura, S. J. Antibiot. 1998, 51, 618-623; D. H. Hua et al. Tetrahedron 2003, 59, 4795-4803), L1210 tumor cells (Perchellet, E. M.; Ladesich, J. B.; Magill, M. J.; Chen, Y.; Hua, D. H.; Perchellet, J. P. Anti-Cancer Drugs 1999, 10, 489-504), and APP C99-induced cell death (Jin, L.-W.; Hua, D. H.; Shie, F.-S.; Maezawa, I.; Sopher, B.; Martin, G. M. J. Mol. Neurosci. 2002, 19, 57-61) were followed.
as §1

Structure (SMILES): C=C(C)[C@H]1CCC2=Cc3c(cc(CC(=O)N[C@@H](CC(=O)O)C(=O)Nc4ccc([N+](=O)[O-])cc4)oc3=O)O[C@H]2C1 [Compound 104]
- protection of MC65 cells from death (in words) (MC65 cells; MC65 cells conditionally expressing partial APP fusion protein, absence of tetracycline): protected from death
- EC50 (MC65 cells; MC65 cells in the absence of tetracycline): 2 µM
- IC50 (ACAT): 168 µM
- substrate of caspase 103 (release of p-nitroaniline) (caspase 103): not a substrate
- IC50 (CETP): > 180 µM
